This passage reports CC50 and EC50 results from patent US10301255B2, “Hepatitis B antiviral agents” (Enanta Pharmaceuticals, Inc., priority 2015, dated 2019).

Tested on in the first series: not listed separately
The series can be described thus: Compound toxicity by ATPlite 1 Step (total ATP levels). The following applies: human; HepAD38 cells, day of harvest; 50% reduction of total ATP vs no drug controls. Type of series: cell-based. The procedure:
(§1) Methods: HepAD38 cells are maintained as previously reported (Ladner et at, Antimicrob. Agents Chemother. 1997, […], 1715). Briefly, cells are passaged upon attaining confluency in DMEM/F12 media in the presence of 10% FBS, Penn/Strep, 250 μg/mL G418, and 1 ug/ml tetracycline. Novel compounds are screened by first washing cells three times with PBS to remove tetracycline, and plating in 96 well plates at 35,000 cells/well. Compounds dissolved in DMSO are then diluted 1:200 into wells containing cells. Five days after compound addition, material is harvested for analysis. For an extended 8 day analysis, cells are plated and treated as described above, but media and compound are refreshed on d2 and d5 post initial treatment.
Additionally, on day of harvest, compound toxicity is evaluated by treating cells with ATPlite 1 Step according to the manufacturer's protocol. Compound concentrations that reduce total ATP levels in wells by 50% relative to no drug controls (CC50) are reported; CC50 ranges are as follows: […].
In general terms: Cellular ATP, detected with luciferase, serves as a proxy for viable cell number.
The CC50 is the concentration giving 50% cytotoxicity. Molecule `COC(=O)OCCCC(F)(F)c1cc(C(=O)Nc2cc(F)c(F)c(F)c2)ccc1Cl` [Compound 2] had a CC50 of 10 to 30 µM.

Take `O=C(Nc1cc(F)c(F)c(F)c1)c1ccc(Cl)c(C(F)(F)CCCF)c1` [Compound 3]: the cytotoxic concentration (CC50) was less than 10 µM.

`O=C(Nc1cc(F)c(F)c(F)c1)c1ccc(Cl)c(C(F)(F)CCCO)c1` [Compound 1] showed a half-maximal cytotoxic concentration (CC50) of less than 10 µM.

Molecule `CC(F)(CCCO)c1cc(C(=O)Nc2cc(F)c(F)c(F)c2)ccc1Cl` (stereo not drawn) [Compound 21] came in with a CC50 greater than 30 µM.

In another series the test system is HBV. The series can be described thus: HepAD38 antiviral assay: reduction of viral product accumulation (virion DNA by qPCR; HBsAg/HBeAg ELISA). Type of series: cell-based. The following applies: Hepatitis B virus, 120 h; HepAD38 cells, tetracycline removed; harvest five days after compound addition; 50% reduction of viral product vs no drug controls. As to the method: as §1
On harvest day, virion DNA is obtained by lysing with Sidestep Lysis and Stabilization Buffer and then quantified via quantitative real time PCR. Commercially available ELISA kits are used to quantitate the viral proteins HBsAg (Alpco) or HbeAg (US Biological) by following the manufacturer's recommended protocol after diluting samples to match the linear range of their respective assays. Irrespective of readout, compound concentrations that reduce viral product accumulation in the cell lysates or supernatants by 50% relative to no drug controls (EC50) are reported; EC50 ranges are as follows: A<1 μM; […].
On the technique in general: In qPCR the cycle at which signal appears reflects the starting amount.
What is called EC50 is the concentration that produces a half-maximal response. Low values mean greater potency, high ones weaker potency. The molecule `CC(C)(C)NC(=O)OCCCC(F)(F)c1cc(C(=O)Nc2ccc(Cl)c(C#N)c2)ccc1Cl` [Compound 10] registered a concentration giving a half-maximal response (EC50) greater than 10 µM.

In turn, `N#Cc1cc(NC(=O)c2ccc(Cl)c(C(F)(F)CCCOC(=O)NCc3ccccc3)c2)ccc1Cl` [Compound 8] came in with a concentration for a half-maximal effect (EC50) greater than 10 µM.

With `COC(=O)OCCCC(F)(F)c1cc(C(=O)Nc2cc(F)c(F)c(F)c2)ccc1Cl` [Compound 2], the EC50 lay within 1 to 10 µM.

The molecule `O=C(Nc1ccc(F)c(Cl)c1)c1ccc(Cl)c(C(F)(F)CCCO)c1` [Compound 17] yielded an EC50 greater than 10 µM.

Regarding `N#Cc1ccc(NC(=O)c2ccc(Cl)c(C(F)(F)CCCO)c2)cc1Cl` [Compound 14], the EC50 is greater than 10 µM.

In the case of `N#Cc1ccc(NC(=O)c2ccc(Cl)c(C(F)(F)CCCO)c2)cc1C(F)(F)F` [Compound 19], the 50% effective concentration (EC50) was greater than 10 µM.

Take `O=C(Nc1ccc(F)c(C2CC2)c1)c1ccc(Cl)c(C(F)(F)CCCO)c1` [Compound 15]: the concentration for a half-maximal effect (EC50) is greater than 10 µM.

For `O=C(Nc1ccc(C(F)(F)F)c(C2CC2)c1)c1ccc(Cl)c(C(F)(F)CCCO)c1` [Compound 11], the EC50 was greater than 10 µM.

`O=C(Nc1ccc(C(F)(F)F)c(Cl)c1)c1ccc(Cl)c(C(F)(F)CCCO)c1` [Compound 18] came in with a 50% effective concentration (EC50) greater than 10 µM.

For `O=C(Nc1cc(F)c(F)c(F)c1)c1ccc(Cl)c(C(O)CCCO)c1` (stereo not drawn) [Compound 22], the EC50 is greater than 10 µM.

Molecule `CCNC(=O)OCCCC(F)(F)c1cc(C(=O)Nc2ccc(Cl)c(C#N)c2)ccc1Cl` [Compound 7] came in with an EC50 greater than 10 µM.

Molecule `N#Cc1cc(NC(=O)c2ccc(Cl)c(C(F)(F)CCCOC(=O)Nc3ccccc3)c2)ccc1Cl` [Compound 9] came in with an EC50 greater than 10 µM.

`COc1ccc(NC(=O)c2ccc(Cl)c(C(F)(F)CCCO)c2)cc1C#N` [Compound 5] gave a half-maximal effective concentration (EC50) greater than 10 µM.

The molecule `O=C(Nc1ccc(F)c(C(F)(F)F)c1)c1ccc(Cl)c(C(F)(F)CCCO)c1` [Compound 16] returned a concentration giving a half-maximal response (EC50) greater than 10 µM.

Consider `OCCCC(F)(F)c1cc(-c2nc(-c3ccc(F)c(Br)c3)c[nH]2)ccc1Cl` [Compound 20], for which the concentration giving a half-maximal response (EC50) was greater than 10 µM.

For the molecule `COc1ccc(NC(=O)c2ccc(Cl)c(C(F)(F)CCCO)c2)cc1C1CC1` [Compound 6], the EC50 was in the range of 1 to 10 µM.

In turn, `N#Cc1cc(NC(=O)c2ccc(Cl)c(C(F)(F)CCCO)c2)ccc1Cl` [Compound 4] returned an EC50 greater than 10 µM.

`O=C(Nc1ccc(C2CC2)c(Cl)c1)c1ccc(Cl)c(C(F)(F)CCCO)c1` [Compound 12] had an EC50 greater than 10 µM.

Molecule `N#Cc1ccc(NC(=O)c2ccc(Cl)c(C(F)(F)CCCO)c2)cc1F` [Compound 13] showed an EC50 greater than 10 µM.

With `O=C(Nc1cc(F)c(F)c(F)c1)c1ccc(Cl)c(C(F)(F)CCCF)c1` [Compound 3], the half-maximal effective concentration (EC50) was less than 1 µM.

For the molecule `O=C(Nc1cc(F)c(F)c(F)c1)c1ccc(Cl)c(C(F)(F)CCCO)c1` [Compound 1], the EC50 is less than 1 µM.

For the molecule `O=C(Nc1cc(F)c(F)c(F)c1)c1ccc(Cl)c(C(F)CCCO)c1` (stereo not drawn) [Compound 23], the EC50 was greater than 10 µM.

`CC(F)(CCCO)c1cc(C(=O)Nc2cc(F)c(F)c(F)c2)ccc1Cl` (stereo not drawn) [Compound 21]: the EC50 is greater than 10 µM.
